target: USP14 (Homo sapiens (Human), UniProt P54578); experiment: Usp14 inhibition assay (Example 57B, B-series compounds); type: biochemical; conditions: IC50 class; average value from a minimum of two experimental determinations
Source text: Example 57B: Usp14 Inhibition Assay
The IC50 values in the Table below represent the average value from a minimum of two experimental determinations.

Sequence of USP14 (P54578 whole entry, looked up): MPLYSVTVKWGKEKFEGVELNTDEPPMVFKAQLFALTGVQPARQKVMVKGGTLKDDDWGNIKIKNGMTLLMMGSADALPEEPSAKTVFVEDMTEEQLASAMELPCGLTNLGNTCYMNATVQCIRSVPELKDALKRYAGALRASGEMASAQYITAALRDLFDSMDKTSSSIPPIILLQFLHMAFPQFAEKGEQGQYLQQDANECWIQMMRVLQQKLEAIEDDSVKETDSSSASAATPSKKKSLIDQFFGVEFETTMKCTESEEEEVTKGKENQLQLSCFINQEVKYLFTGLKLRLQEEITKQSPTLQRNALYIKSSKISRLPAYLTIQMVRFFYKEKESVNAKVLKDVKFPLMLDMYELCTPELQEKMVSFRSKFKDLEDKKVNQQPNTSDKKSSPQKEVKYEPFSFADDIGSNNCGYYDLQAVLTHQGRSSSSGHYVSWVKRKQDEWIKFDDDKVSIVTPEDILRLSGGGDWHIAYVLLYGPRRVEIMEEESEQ

`Cc1cc(C(=O)CN2[C@@H]3C=C(C(F)(F)F)[C@H]2CC3)c(C)n1-c1ccc(C#N)cc1` (racemic) [Example 141B, (±)-4-(2,5-Dimethyl-3-(2-((1R,4S)-2-(trifluoromethyl)-7-azabicyclo[2.2.1]hept-2-en-7-yl)acetyl)-1H-pyrrol-1-yl)benzonitrile] and `Cc1cc(C(=O)CN2[C@@H]3CC[C@H]2[C@](O)(C(F)(F)F)C3)c(C)n1-c1ccc(C#N)cc1` (racemic) [Example 73B, (±)-4-(3-(2-((1R,2R,4S)-2-Hydroxy-2-(trifluoromethyl)-7-azabicyclo[2.2.1]heptan-7-yl)acetyl)-2,5-dimethyl-1H-pyrrol-1-yl)benzonitrile] cannot be ordered by IC50: > 500 nM for the first, > 500 nM for the second.

`Cc1c(C(=O)CN2[C@@H]3CC[C@H]2[C@@H](O)C3)cc(C(C)C)n1-c1ccc(C#N)cc1` (racemic) [Example 112B, (±)-4-(3-(2-((1R,2R,4S)-2-Hydroxy-7-azabicyclo[2.2.1]heptan-7-yl)acetyl)-5-isopropyl-2-methyl-1H-pyrrol-1-yl)benzonitrile] and `Cc1c(C(=O)CN2C3CCC2[C@@H](O)C3)cc(Cl)n1-c1ccc(C#N)cc1` (mixture of isomers) [Example 96B, (±)-4-(5-Chloro-3-(2-((2R)-2-hydroxy-7-azabicyclo[2.2.1]heptan-7-yl)acetyl)-2-methyl-1H-pyrrol-1-yl)benzonitrile] fall in the same range of IC50: 50 to 500 nM for the first, 50 to 500 nM for the second.

`Cc1c(C(=O)CN2[C@@H]3CC[C@H]2[C@@H](O)C3)cc(CCCCC2COC2)n1-c1ccc(C#N)cc1` (racemic) [Example 23B, (±)-4-(3-(2-((1S,2S,4R)-2-Hydroxy-7-azabicyclo[2.2.1]heptan-7-yl)acetyl)-2-methyl-5-(4-(oxetan-3-yl)butyl)-1H-pyrrol-1-yl)benzonitrile] and `COCCCCc1cc(C(=O)CN2[C@H]3CC[C@@H]2[C@H](O)C3)c(C)n1-c1ccc(C#N)cc1` (stereo in doubt) [Example 13B, (rel)-4-(3-(2-((1S,2S,4R)-2-Hydroxy-7-azabicyclo[2.2.1]heptan-7-yl)acetyl)-5-(4-methoxybutyl)-2-methyl-1H-pyrrol-1-yl)benzonitrile] cannot be ordered by IC50: < 50 nM for the first, < 50 nM for the second.

First: Cc1c(C(=O)CN2C3CCC2CC3)c(C)n(-c2ccc(C#N)cc2)c1-c1ccc(C#N)cc1 [Example 16B, 4,4′-(4-(2-(7-Azabicyclo[2.2.1]heptan-7-yl)acetyl)-3,5-dimethyl-1H-pyrrole-1,2-diyl)dibenzonitrile]
Second: Cc1c(C(=O)CN2C3CCC2CC3)c(C)n(-c2ccc(C#N)cc2)c1/C=C/CCS(C)(=O)=O [Example 32B, (E)-4-(3-(2-(7-Azabicyclo[2.2.1]heptan-7-yl)acetyl)-2,4-dimethyl-5-(4-(methylsulfonyl)but-1-en-1-yl)-1H-pyrrol-1-yl)benzonitrile]
The IC50 of the first is higher: > 500 nM for the first, 50 to 500 nM for the second. The second is the more potent here.

First: Cc1c(C(=O)CN2C3CCC2[C@@H](O)C3)cc(C#CC2COC2)n1-c1ccc(C#N)cc1 (mixture of isomers) [Example 57B, (±)-4-(3-(2-((2R)-2-Hydroxy-7-azabicyclo[2.2.1]heptan-7-yl)acetyl)-2-methyl-5-(oxetan-3-ylethynyl)-1H-pyrrol-1-yl)benzonitrile]
Second: Cc1c(C(=O)CN2C3CCC2[C@@H](O)C3)cc(C#CCCC#N)n1-c1ccc(C#N)cc1 (mixture of isomers) [Example 10B, (±)-4-(5-(4-Cyanobut-1-yn-1-yl)-3-(2-((2R)-2-hydroxy-7-azabicyclo[2.2.1]heptan-7-yl)acetyl)-2-methyl-1H-pyrrol-1-yl)benzonitrile]
The IC50 of the first is higher: 50 to 500 nM for the first, < 50 nM for the second.

First: Cc1c(C(=O)CN2[C@@H]3CC[C@H]2[C@@H](O)C3)cc(CCC2(C)COC2)n1-c1ccc(C#N)cc1 (racemic) [Example 55B, (±)-4-(3-(2-((1R,2R,4S)-2-Hydroxy-7-azabicyclo[2.2.1]heptan-7-yl)acetyl)-2-methyl-5-(2-(3-methyloxetan-3-yl)ethyl)-1H-pyrrol-1-yl)benzonitrile]
Second: Cc1c(C(=O)CN2C3CCC2[C@@H](O)C3)cc(CC[Si](C)(C)C)n1-c1ccc(C#N)cc1 (mixture of isomers) [Example 50B, (±)-4-(3-(2-((2R)-2-Hydroxy-7-azabicyclo[2.2.1]heptan-7-yl)acetyl)-2-methyl-5-(2-(trimethylsilyl)ethyl)-1H-pyrrol-1-yl)benzonitrile]
The IC50 of the first is lower: < 50 nM for the first, 50 to 500 nM for the second.

`Cc1cc(C(=O)CN2[C@@H]3CC[C@H]2[C@@](C)(O)C3)c(C)n1-c1ccc(C#N)cc1` (racemic) [Example 71B, (±)-4-(3-(2-((1R,2R,4S)-2-Hydroxy-2-methyl-7-azabicyclo[2.2.1]heptan-7-yl)acetyl)-2,5-dimethyl-1H-pyrrol-1-yl)benzonitrile] and `Cc1cc(C(=O)CN2[C@@H]3CC[C@H]2[C@@H](C)C3)c(C)n1-c1ccc(C#N)cc1` (racemic) [Example 100B, (±)-4-(2,5-Dimethyl-3-(2-((1S,2S,4R)-2-methyl-7-azabicyclo[2.2.1]heptan-7-yl)acetyl)-1H-pyrrol-1-yl)benzonitrile] cannot be ordered by IC50: > 500 nM for the first, > 500 nM for the second.

`Cc1c(C(=O)CN2C3CCC2C(O)C3)cc([C@@H]2C[C@H]2C)n1-c1ccc(C#N)cc1` (mixture of isomers) [Example 142B, (±)-4-(3-(2-((1S,2R,4R)-2-Hydroxy-7-azabicyclo[2.2.1]heptan-7-yl)acetyl)-2-methyl-5-(2-methylcyclopropyl)-1H-pyrrol-1-yl)benzonitrile] and `Cc1c(C(=O)CN2C3CCC2[C@@H](O)C3)cc(C2CCCC2)n1-c1ccc(C#N)cc1` (mixture of isomers) [Example 110B, (±)-4-(5-Cyclopentyl-3-(2-((2R)-2-hydroxy-7-azabicyclo[2.2.1]heptan-7-yl)acetyl)-2-methyl-1H-pyrrol-1-yl)benzonitrile] fall in the same range of IC50: 50 to 500 nM for the first, 50 to 500 nM for the second.

`Cc1ncc(-c2cc(C(=O)CN3[C@@H]4CC[C@H]3[C@@H](O)C4)c(C)n2-c2ccc(C#N)cc2)s1` (racemic) [Example 147B, (±)-4-(3-(2-((1R,2R,4S)-2-Hydroxy-7-azabicyclo[2.2.1]heptan-7-yl)acetyl)-2-methyl-5-(2-methylthiazol-5-yl)-1H-pyrrol-1-yl)benzonitrile] and `Cc1nc(-c2cc(C(=O)CN3[C@@H]4CC[C@H]3[C@@H](O)C4)c(C)n2-c2ccc(C#N)cc2)cs1` (racemic) [Example 144B, (±)-4-(3-(2-((1R,2R,4S)-2-Hydroxy-7-azabicyclo[2.2.1]heptan-7-yl)acetyl)-2-methyl-5-(2-methylthiazol-4-yl)-1H-pyrrol-1-yl)benzonitrile] fall in the same range of IC50: 50 to 500 nM for the first, 50 to 500 nM for the second.

Compared with `Cc1c(C(=O)CN2[C@@H]3CC[C@H]2[C@@H](O)C3)cc(-c2csc(C(F)(F)F)n2)n1-c1ccc(C#N)cc1` (racemic) [Example 145B, (±)-4-(3-(2-((1R,2R,4S)-2-Hydroxy-7-azabicyclo[2.2.1]heptan-7-yl)acetyl)-2-methyl-5-(2-(trifluoromethyl)thiazol-4-yl)-1H-pyrrol-1-yl)benzonitrile], `Cc1cc(C(=O)CN2[C@H]3CCC[C@@H]2[C@H](O)C3)c(C)n1-c1ccc(C#N)cc1` (racemic) [Example 82B, (±)-4-(3-(2-((1S,5R,6R)-6-Hydroxy-8-azabicyclo[3.2.1]octan-8-yl)acetyl)-2,5-dimethyl-1H-pyrrol-1-yl)benzonitrile] is lower in IC50: > 500 nM for the first, 50 to 500 nM for the second. The second is the more potent here.

`Cc1cc(C(=O)CN2C3CCC2[C@@H]2COC[C@H]32)c(C)n1-c1ccc(C#N)cc1` (racemic) [Example 106B, (±)-4-(2,5-Dimethyl-3-(2-((3aR,4R,7S,7aS)-octahydro-4,7-epiminoisobenzofuran-8-yl)acetyl)-1H-pyrrol-1-yl)benzonitrile] and `Cc1c(C(=O)CN2[C@H]3CC[C@@H]2[C@@H](C)C3)cc(CC2COC2)n1-c1ccc(C#N)cc1` (racemic) [Example 56B, (±)-4-(2-Methyl-3-(2-((1R,2S,4S)-2-methyl-7-azabicyclo[2.2.1]heptan-7-yl)acetyl)-5-(oxetan-3-ylmethyl)-1H-pyrrol-1-yl)benzonitrile] fall in the same range of IC50: 50 to 500 nM for the first, 50 to 500 nM for the second.

Compared with `Cc1c(C(=O)CN2C3CCC2[C@@H](O)C3)cc(CCC2CCOCC2)n1-c1ccc(C#N)cc1` (mixture of isomers) [Example 9B, (±)-4-(3-(2-((2R)-2-Hydroxy-7-azabicyclo[2.2.1]heptan-7-yl)acetyl)-2-methyl-5-(2-(tetrahydro-2H-pyran-4-yl)ethyl)-1H-pyrrol-1-yl)benzonitrile], `Cc1c(C(=O)CN2C3CCC2[C@H](O)C3)cc(C(C)CCS(C)(=O)=O)n1-c1ccc(C#N)cc1` (mixture of isomers) [Example 11B, (±)-4-(3-(2-((2R)-2-Hydroxy-7-azabicyclo[2.2.1]heptan-7-yl)acetyl)-2-methyl-5-(4-(methylsulfonyl)butan-2-yl)-1H-pyrrol-1-yl)benzonitrile] is higher in IC50: < 50 nM for the first, > 500 nM for the second.

`COC1C[C@H]2CC[C@H](C1)N2CC(=O)c1cc(C)n(-c2ccc(C#N)cc2)c1C` (stereo partly drawn) [Example 88B, 4-(3-(2-((1R,3r,5S)-3-Methoxy-8-azabicyclo[3.2.1]octan-8-yl)acetyl)-2,5-dimethyl-1H-pyrrol-1-yl)benzonitrile] and `Cc1c(F)c(C(=O)CN2[C@@H]3CC[C@H]2[C@@H](C)C3)c(C)n1-c1ccc(C#N)cc1` (racemic) [Example 101B, (±)-4-(3-Fluoro-2,5-dimethyl-4-(2-((1S,2S,4R)-2-methyl-7-azabicyclo[2.2.1]heptan-7-yl)acetyl)-1H-pyrrol-1-yl)benzonitrile] fall in the same range of IC50: 50 to 500 nM for the first, 50 to 500 nM for the second.

First: COC1C[C@H]2CC[C@H](C1)N2CC(=O)c1cc(C)n(-c2ccc(C#N)cc2)c1C (stereo partly drawn) [Example 89B, 4-(3-(2-((1R,3s,5S)-3-Methoxy-8-azabicyclo[3.2.1]octan-8-yl)acetyl)-2,5-dimethyl-1H-pyrrol-1-yl)benzonitrile]
Second: Cc1c(F)c(C(=O)CN2[C@@H]3CC[C@H]2[C@@H](C(F)(F)F)C3)c(C)n1-c1ccc(C#N)cc1 (racemic) [Example 103B, (±)-4-(3-Fluoro-2,5-dimethyl-4-(2-((1R,2R,4S)-2-(trifluoromethyl)-7-azabicyclo[2.2.1]heptan-7-yl)acetyl)-1H-pyrrol-1-yl)benzonitrile]
The IC50 of the first is lower: 50 to 500 nM for the first, > 500 nM for the second.

Work on `Cc1cc(C(=O)CN2C3CCC2[C@@H](O)C3)c(C)n1-c1cc(F)c(C#N)c(F)c1` (mixture of isomers) [Example 94B, (±)-2,6-Difluoro-4-(3-(2-((2R)-2-hydroxy-7-azabicyclo[2.2.1]heptan-7-yl)acetyl)-2,5-dimethyl-1H-pyrrol-1-yl)benzonitrile] yielded an IC50 of 50 to 500 nM.

— patent publication US11560385B2, “Proteasome activity enhancing compounds” (Proteostasis Therapeutics, Inc., priority 2018, dated 2023)
